The source of these data is patent US7217810B2, “High level production of arbutin in green plants and microbes” (E. I. du Pont de Nemours and Company, priority 2003, dated 2007).

Broadly, the Km is the concentration of substrate that gives half-maximal velocity.

In data set [1] the target is T1, UGT72B1 (Arabidopsis thaliana, UniProt Q9M156).
T1 construct: host or cells: E. coli (per the cited work)
T1 sequence (Q9M156 1-480): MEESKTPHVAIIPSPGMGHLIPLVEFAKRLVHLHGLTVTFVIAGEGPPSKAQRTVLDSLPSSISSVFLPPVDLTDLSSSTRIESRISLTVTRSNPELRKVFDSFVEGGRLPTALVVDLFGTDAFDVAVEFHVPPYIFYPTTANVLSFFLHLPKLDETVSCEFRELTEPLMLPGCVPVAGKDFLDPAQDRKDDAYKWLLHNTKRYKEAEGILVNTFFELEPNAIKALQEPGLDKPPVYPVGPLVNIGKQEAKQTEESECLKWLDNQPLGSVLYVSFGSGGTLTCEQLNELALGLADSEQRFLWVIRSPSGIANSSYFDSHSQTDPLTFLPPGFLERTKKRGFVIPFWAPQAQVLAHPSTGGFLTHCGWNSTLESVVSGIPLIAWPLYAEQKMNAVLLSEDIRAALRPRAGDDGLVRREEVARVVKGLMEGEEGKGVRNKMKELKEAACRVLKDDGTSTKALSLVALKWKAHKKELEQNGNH
As to conditions: highest of the benzoic acid derivatives analyzed; cited from earlier work.

Data set [2] has as its target UGT72B1 (Arabidopsis thaliana, UniProt Q9M156, E284K/I310V/T253S). Here is the method:
The enzyme was diluted to a final concentration of 0.115 ng/μL using 50 mM Tris HCl (pH 7.5), 1 mM MgCl2 and 2 mM DTT. […] Arbutin formation was quantitated by HPLC analysis as follows: 10 μL of analyte were separated on a Nova-Pak® C18 column (60 Å pore size, […]) using a gradient from 2% acetonitrile, 1.5% phosphoric acid (solvent A) to 48% acetonitrile, 1.5% phosphoric acid (solvent B). The following solvent gradient is applied: 0–5 min 100% solvent A; 5–20 min linear gradient of 0–100% solvent B; 21–25 min 100% solvent A. Arbutin was detected at 221 nm absorbance wavelength and quantitated using calibration curves generated with a commercially available standard of arbutin.
The data was fitted to the Michaelis-Menten equation. […] In this plot, an estimate of the Km is provided as the slope of the line representing the linear regression curve through the points and the Vmax by the intercept of the regression curve with the y axis.
(§1) This turnover number was calculated using a molecular weight of the UGT72B1 enzyme of 53,015.33 Da calculated with the PEPIDESORT software package of the GCG.

Data set [3] has as its target T2, arbutin synthase (Rauvolfia serpentina, UniProt Q9AR73). The following applies: 50° C., converted from cited Vmax using 51,793.01 Da. The protocol:
as §1

The target in data set [4] is T2, arbutin synthase. The following applies: 50° C., 1 mM hydroquinone; cited from earlier work.
Data set [5] relates to Oc1ccc(O)cc1. Briefly: purified protein, by the assay type. As to conditions: pH 7.5; 37.0 °C.
Data set [6] concerns O=C(O)c1ccc(O)cc1. Briefly: purified protein, by the assay type. The following applies: other: pHBA 0.2 to 400 μM, fitted to Michaelis-Menten equation; 25.0 °C.

On to `O=C(O)c1cc(O)ccc1O` [2,5-dihydroxybenzoic acid], for which the specific activity in data set [1] was 11.72 pkat/μg protein.

With `Oc1ccc(O)cc1` [hydroquinone, 1,4-dihydroxybenzene], the “apparent Km” value in data set [2] was approximately 0.3 µM. In addition, in data set [2] (Michaelis-Menten plot, FIG. 5), the “hydroquinone concentration giving significant substrate inhibition” value was “greater than 100 μM”. In addition, the “Vmax with hydroquinone relative to Vmax with benzoic acid substrates” value in data set [2] (compared with Lim et al. values) is recorded as approximately 68 fold. Besides, in data set [2] (hydroquinone as substrate, 20 mM UDPG, 37° C., Hofstee plot), the “apparent Vmax” value was approximately 796 pmol/sec/1 g. The “turnover number (Kcat)” value in data set [2] (hydroquinone as substrate, 37° C.) came to 42 s⁻¹. The compound further showed a turnover number in data set [3] of 1.4 s⁻¹. Further, the Vmax in data set [4] is 26.32 pkat/μg.

On to “UGT72B1 (Arabidopsis thaliana; E284K/I310V/T253S)”, for which the Km in data set [5] is 0.3 µM.

Regarding “pHBA 1-hydroxylase (Lodderomyces parapsilosis CDC317)”, in data set [6], the Km was determined as 0.31 µM and the Vmax turned out to be 6.4 µmol/min/mg.
